Results taken from the kinase profiling compilation of Christmann-Franck et al. (2016).

Key:
Assay in all cases: radiometric filter-binding kinase assay, Kinase HotSpot
Details in all cases: compound 0.5 µM; ATP 10 µM
PTK2 (human) = PTK2 (human) (UniProt Q05397)
OXSR1 (human) = OXSR1 (human) (UniProt O95747)
MAPK9 (human) = MAPK9 (human) (UniProt P45984)
CDC42BPB (human) = CDC42BPB (human) (UniProt Q9Y5S2)
SRPK3 (human) = SRPK3 (human) (UniProt Q9UPE1)
EPHA3 (human) = EPHA3 (human) (UniProt P29320)
MUSK (human) = MUSK (human) (UniProt O15146)
MAP4K5 (human) = MAP4K5 (human) (UniProt Q9Y4K4)
PTK6 (human) = PTK6 (human) (UniProt Q13882)
PRKG2 (human) = PRKG2 (human) (UniProt Q13237)
NEK6 (human) = NEK6 (human) (UniProt Q9HC98)
FYN (human) = FYN (human) (UniProt P06241)
NTRK3 (human) = NTRK3 (human) (UniProt Q16288)
NUAK2 (human) = NUAK2 (human) (UniProt Q9H093)
MST4 (human) = MST4 (human) (UniProt Q9P289)
MARK1 (human) = MARK1 (human) (UniProt Q9P0L2)
IKBKE (human) = IKBKE (human) (UniProt Q14164)
SLK (human) = SLK (human) (UniProt Q9H2G2)
DYRK3 (human) = DYRK3 (human) (UniProt O43781)
MATK (human) = MATK (human) (UniProt P42679)
RPS6KA6 KD1 KD2 (human) = RPS6KA6 KD1 KD2 (human) (UniProt Q9UK32)
PRKX (human) = PRKX (human) (UniProt P51817)
MET (human) = MET (human) (UniProt P08581)
EPHA8 (human) = EPHA8 (human) (UniProt P29322)
NEK1 (human) = NEK1 (human) (UniProt Q96PY6)
FGFR1 (human) = FGFR1 (human) (UniProt P11362)
NEK7 (human) = NEK7 (human) (UniProt Q8TDX7)
STK24 (human) = STK24 (human) (UniProt Q9Y6E0)
CAMK2G (human) = CAMK2G (human) (UniProt Q13555)
RIPK2 (human) = RIPK2 (human) (UniProt O43353)
CAMK2A (human) = CAMK2A (human) (UniProt Q9UQM7)
ADRBK2 (human) = ADRBK2 (human) (UniProt P35626)
CSNK1G2 (human) = CSNK1G2 (human) (UniProt P78368)
TGFBR2 (human) = TGFBR2 (human) (UniProt P37173)
PIM1 (human) = PIM1 (human) (UniProt P11309)
EPHA2 (human) = EPHA2 (human) (UniProt P29317)
TTK (human) = TTK (human) (UniProt P33981)
PRKCB1 (human) = PRKCB1 (human) (UniProt P05771)
HCK (human) = HCK (human) (UniProt P08631)
PAK2 (human) = PAK2 (human) (UniProt Q13177)
INSR (human) = INSR (human) (UniProt P06213)
CAMK4 (human) = CAMK4 (human) (UniProt Q16566)

Sequence of PRKX (human) (P51817 whole entry, looked up): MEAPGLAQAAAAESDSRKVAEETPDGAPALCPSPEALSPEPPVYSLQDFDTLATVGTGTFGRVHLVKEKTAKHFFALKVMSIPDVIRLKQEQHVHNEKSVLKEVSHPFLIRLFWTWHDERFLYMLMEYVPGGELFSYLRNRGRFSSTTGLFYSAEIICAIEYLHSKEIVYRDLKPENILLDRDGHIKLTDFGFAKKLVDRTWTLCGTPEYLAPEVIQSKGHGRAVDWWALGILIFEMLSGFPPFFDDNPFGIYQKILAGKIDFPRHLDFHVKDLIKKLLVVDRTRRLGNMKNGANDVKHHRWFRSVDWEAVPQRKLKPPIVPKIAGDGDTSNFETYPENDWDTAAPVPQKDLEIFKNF
Sequence of DYRK3 (human) (O43781 whole entry, looked up): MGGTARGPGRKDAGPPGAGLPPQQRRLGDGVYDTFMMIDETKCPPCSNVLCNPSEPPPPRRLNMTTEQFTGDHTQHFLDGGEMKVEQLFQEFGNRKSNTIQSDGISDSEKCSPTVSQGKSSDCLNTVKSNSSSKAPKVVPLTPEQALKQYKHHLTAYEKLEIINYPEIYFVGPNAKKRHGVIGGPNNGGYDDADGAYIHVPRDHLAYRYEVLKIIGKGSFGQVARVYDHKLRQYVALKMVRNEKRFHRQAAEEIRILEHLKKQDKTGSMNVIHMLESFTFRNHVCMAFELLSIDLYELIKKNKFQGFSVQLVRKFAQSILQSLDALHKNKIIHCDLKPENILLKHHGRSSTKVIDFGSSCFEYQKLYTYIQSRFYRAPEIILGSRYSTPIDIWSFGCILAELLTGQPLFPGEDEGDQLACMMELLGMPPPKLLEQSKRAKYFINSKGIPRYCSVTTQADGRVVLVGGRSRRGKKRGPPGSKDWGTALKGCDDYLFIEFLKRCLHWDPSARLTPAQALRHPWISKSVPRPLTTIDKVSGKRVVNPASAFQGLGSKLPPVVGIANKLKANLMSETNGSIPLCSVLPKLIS
Sequence of OXSR1 (human) (O95747 whole entry, looked up): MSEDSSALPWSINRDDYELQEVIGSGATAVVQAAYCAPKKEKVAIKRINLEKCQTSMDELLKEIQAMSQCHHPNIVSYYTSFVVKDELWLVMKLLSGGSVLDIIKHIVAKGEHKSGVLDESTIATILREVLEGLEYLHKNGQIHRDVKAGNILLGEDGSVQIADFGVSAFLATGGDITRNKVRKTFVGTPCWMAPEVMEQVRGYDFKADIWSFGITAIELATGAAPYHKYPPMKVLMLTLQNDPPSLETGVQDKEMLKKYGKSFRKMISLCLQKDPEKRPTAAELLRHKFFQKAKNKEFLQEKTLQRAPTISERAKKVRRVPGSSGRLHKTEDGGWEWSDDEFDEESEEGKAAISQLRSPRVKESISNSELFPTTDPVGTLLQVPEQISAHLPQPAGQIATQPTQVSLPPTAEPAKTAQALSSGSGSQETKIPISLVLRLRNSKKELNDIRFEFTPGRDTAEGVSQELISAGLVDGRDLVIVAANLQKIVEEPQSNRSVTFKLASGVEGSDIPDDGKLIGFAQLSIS
Sequence of TGFBR2 (human) (P37173 whole entry, looked up): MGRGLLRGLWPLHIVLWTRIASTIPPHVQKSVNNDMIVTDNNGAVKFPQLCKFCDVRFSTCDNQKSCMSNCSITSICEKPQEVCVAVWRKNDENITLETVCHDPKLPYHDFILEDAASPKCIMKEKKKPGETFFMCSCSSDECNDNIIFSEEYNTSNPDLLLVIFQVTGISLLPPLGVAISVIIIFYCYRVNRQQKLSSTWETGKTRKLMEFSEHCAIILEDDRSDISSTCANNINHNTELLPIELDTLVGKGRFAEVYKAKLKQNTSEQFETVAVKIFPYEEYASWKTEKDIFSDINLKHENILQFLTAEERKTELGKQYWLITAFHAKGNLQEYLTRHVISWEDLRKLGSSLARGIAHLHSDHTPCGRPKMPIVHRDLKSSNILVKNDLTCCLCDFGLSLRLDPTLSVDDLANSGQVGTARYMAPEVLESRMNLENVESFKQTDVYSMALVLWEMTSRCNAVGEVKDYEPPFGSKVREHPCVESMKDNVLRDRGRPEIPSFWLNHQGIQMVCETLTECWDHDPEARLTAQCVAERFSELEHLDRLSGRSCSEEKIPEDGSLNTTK
Sequence of FGFR1 (human) (P11362 whole entry, looked up): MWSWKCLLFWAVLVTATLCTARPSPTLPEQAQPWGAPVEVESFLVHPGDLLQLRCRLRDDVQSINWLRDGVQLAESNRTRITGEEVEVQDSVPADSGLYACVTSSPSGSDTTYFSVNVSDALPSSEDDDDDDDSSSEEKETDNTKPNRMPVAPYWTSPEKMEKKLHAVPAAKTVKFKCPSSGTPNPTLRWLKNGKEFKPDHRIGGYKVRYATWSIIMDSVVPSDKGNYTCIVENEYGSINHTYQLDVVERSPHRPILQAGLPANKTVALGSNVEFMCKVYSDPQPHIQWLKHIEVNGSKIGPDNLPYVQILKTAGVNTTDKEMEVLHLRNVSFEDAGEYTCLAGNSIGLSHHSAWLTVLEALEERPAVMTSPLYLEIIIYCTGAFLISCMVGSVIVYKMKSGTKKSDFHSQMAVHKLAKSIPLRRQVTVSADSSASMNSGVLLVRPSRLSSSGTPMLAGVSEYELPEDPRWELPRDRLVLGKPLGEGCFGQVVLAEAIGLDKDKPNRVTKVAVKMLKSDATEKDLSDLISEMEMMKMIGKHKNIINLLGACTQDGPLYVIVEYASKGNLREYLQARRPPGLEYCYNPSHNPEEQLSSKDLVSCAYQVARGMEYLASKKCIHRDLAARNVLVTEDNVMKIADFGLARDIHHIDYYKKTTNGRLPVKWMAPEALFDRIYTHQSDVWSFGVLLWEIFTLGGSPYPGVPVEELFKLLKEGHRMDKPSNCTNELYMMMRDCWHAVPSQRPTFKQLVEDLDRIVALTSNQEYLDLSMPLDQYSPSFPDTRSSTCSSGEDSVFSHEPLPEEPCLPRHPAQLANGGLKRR
Sequence of IKBKE (human) (Q14164 whole entry, looked up): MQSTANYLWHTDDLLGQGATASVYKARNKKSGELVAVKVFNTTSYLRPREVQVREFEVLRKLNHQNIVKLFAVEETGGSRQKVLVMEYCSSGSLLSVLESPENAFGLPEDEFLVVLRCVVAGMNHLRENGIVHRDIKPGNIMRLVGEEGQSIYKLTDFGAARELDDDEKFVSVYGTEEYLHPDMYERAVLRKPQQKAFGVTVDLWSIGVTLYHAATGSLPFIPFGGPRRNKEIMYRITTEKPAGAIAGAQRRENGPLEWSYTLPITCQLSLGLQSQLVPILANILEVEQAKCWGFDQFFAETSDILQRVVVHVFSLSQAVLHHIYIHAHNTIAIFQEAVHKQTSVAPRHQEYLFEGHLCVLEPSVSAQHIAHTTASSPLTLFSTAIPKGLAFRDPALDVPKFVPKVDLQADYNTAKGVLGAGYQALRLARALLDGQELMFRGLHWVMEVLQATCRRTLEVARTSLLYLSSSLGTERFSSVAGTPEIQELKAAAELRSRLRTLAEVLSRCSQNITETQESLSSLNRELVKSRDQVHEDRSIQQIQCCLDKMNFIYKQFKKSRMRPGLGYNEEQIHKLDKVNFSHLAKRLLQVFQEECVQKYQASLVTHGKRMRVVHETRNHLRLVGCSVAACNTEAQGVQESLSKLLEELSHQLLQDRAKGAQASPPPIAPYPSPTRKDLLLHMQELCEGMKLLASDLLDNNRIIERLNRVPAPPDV
Sequence of MST4 (human) (Q9P289 whole entry, looked up): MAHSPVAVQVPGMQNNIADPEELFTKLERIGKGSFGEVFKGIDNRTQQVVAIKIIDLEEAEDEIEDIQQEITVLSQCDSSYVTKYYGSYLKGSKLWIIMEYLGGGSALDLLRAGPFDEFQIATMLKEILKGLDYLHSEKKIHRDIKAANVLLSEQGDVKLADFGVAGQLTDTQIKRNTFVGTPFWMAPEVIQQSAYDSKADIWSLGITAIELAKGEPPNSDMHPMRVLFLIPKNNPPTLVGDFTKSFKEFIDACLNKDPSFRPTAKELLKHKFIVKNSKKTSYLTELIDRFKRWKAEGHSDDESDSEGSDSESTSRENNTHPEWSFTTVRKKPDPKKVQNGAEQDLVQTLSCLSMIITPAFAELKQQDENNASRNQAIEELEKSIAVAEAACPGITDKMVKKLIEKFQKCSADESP
Sequence of NEK6 (human) (Q9HC98 whole entry, looked up): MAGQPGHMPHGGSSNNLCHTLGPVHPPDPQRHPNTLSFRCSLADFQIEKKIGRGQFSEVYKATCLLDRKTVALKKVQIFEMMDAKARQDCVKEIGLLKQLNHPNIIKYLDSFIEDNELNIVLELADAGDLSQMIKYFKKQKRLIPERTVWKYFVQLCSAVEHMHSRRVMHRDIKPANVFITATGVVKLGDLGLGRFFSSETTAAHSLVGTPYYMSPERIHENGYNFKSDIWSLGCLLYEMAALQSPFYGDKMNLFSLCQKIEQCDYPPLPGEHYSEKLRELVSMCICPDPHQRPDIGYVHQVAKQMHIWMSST
Sequence of CAMK2G (human) (Q13555 whole entry, looked up): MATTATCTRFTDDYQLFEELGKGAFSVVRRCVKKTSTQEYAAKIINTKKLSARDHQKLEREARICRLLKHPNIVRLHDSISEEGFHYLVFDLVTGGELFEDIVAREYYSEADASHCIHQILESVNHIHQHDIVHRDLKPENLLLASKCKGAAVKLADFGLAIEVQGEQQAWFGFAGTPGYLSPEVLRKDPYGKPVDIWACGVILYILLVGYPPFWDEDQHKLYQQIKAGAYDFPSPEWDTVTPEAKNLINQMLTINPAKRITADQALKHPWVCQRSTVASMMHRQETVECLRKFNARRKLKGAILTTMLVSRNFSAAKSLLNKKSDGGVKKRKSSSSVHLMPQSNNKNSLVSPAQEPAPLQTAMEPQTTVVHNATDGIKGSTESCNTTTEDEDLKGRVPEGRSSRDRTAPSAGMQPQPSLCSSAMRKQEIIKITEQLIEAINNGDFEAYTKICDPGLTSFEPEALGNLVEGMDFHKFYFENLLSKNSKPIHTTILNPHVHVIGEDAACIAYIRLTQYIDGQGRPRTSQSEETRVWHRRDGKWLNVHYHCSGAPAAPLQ

Nc1ncnc2[nH]nc(Nc3ccc(F)cc3)c12
residual activity (PTK2 (human)): 103% | residual activity (OXSR1 (human)): 110% | residual activity (MAPK9 (human)): 103% | residual activity (CDC42BPB (human)): 106% | residual activity (SRPK3 (human)): 91.5% | residual activity (EPHA3 (human)): 107% | residual activity (MUSK (human)): 93.9% | residual activity (MAP4K5 (human)): 52% | residual activity (PTK6 (human)): 68.3% | residual activity (PRKG2 (human)): 97% | residual activity (NEK6 (human)): 102% | residual activity (FYN (human)): 93% | residual activity (NTRK3 (human)): 81.5% | residual activity (NUAK2 (human)): 90.4% | residual activity (MST4 (human)): 91% | residual activity (MARK1 (human)): 93.8% | residual activity (IKBKE (human)): 100% | residual activity (SLK (human)): 99.5% | residual activity (DYRK3 (human)): 89% | residual activity (MATK (human)): 95.6% | residual activity (RPS6KA6 KD1 KD2 (human)): 71.7% | residual activity (PRKX (human)): 90.4% | residual activity (MET (human)): 124% | residual activity (EPHA8 (human)): 94% | residual activity (NEK1 (human)): 94% | residual activity (FGFR1 (human)): 91.2% | residual activity (NEK7 (human)): 97% | residual activity (STK24 (human)): 81.6% | residual activity (CAMK2G (human)): 119% | residual activity (RIPK2 (human)): 68.7% | residual activity (CAMK2A (human)): 105% | residual activity (ADRBK2 (human)): 102% | residual activity (CSNK1G2 (human)): 95.7% | residual activity (TGFBR2 (human)): 101% | residual activity (PIM1 (human)): 95.5% | residual activity (EPHA2 (human)): 89.9% | residual activity (TTK (human)): 96.1% | residual activity (PRKCB1 (human)): 95.9% | residual activity (HCK (human)): 90.7% | residual activity (PAK2 (human)): 103% | residual activity (INSR (human)): 98.5% | residual activity (CAMK4 (human)): 103%

N#C/C(=C(/N)Sc1ccc(N)cc1)c1ccccc1C(F)(F)F
residual activity (PTK2 (human)): 101% | residual activity (OXSR1 (human)): 101% | residual activity (MAPK9 (human)): 110% | residual activity (CDC42BPB (human)): 104% | residual activity (SRPK3 (human)): 96.3% | residual activity (EPHA3 (human)): 105% | residual activity (MUSK (human)): 91.9% | residual activity (MAP4K5 (human)): 94% | residual activity (PTK6 (human)): 97.6% | residual activity (PRKG2 (human)): 113% | residual activity (NEK6 (human)): 101% | residual activity (FYN (human)): 97.1% | residual activity (NTRK3 (human)): 101% | residual activity (NUAK2 (human)): 75% | residual activity (MST4 (human)): 97.2% | residual activity (MARK1 (human)): 99.9% | residual activity (IKBKE (human)): 102% | residual activity (SLK (human)): 102% | residual activity (DYRK3 (human)): 105% | residual activity (MATK (human)): 90.7% | residual activity (RPS6KA6 KD1 KD2 (human)): 83.9% | residual activity (PRKX (human)): 98.9% | residual activity (MET (human)): 77.2% | residual activity (EPHA8 (human)): 94.1% | residual activity (NEK1 (human)): 99% | residual activity (FGFR1 (human)): 108% | residual activity (NEK7 (human)): 93.9% | residual activity (STK24 (human)): 89.3% | residual activity (CAMK2G (human)): 106% | residual activity (RIPK2 (human)): 91% | residual activity (CAMK2A (human)): 111% | residual activity (ADRBK2 (human)): 101% | residual activity (CSNK1G2 (human)): 96.4% | residual activity (TGFBR2 (human)): 113% | residual activity (PIM1 (human)): 99.7% | residual activity (EPHA2 (human)): 104% | residual activity (TTK (human)): 93.6% | residual activity (PRKCB1 (human)): 93.1% | residual activity (HCK (human)): 93.9% | residual activity (PAK2 (human)): 98% | residual activity (INSR (human)): 101% | residual activity (CAMK4 (human)): 110%

Nc1ncnc2c1c(-c1ccc(Oc3ccccc3)cc1)cn2C1CCCC1
residual activity (PTK2 (human)): 93.9% | residual activity (OXSR1 (human)): 93.5% | residual activity (MAPK9 (human)): 100% | residual activity (CDC42BPB (human)): 107% | residual activity (SRPK3 (human)): 95.7% | residual activity (EPHA3 (human)): 96.3% | residual activity (MUSK (human)): 115% | residual activity (MAP4K5 (human)): 80.2% | residual activity (PTK6 (human)): 0.775% | residual activity (PRKG2 (human)): 114% | residual activity (NEK6 (human)): 107% | residual activity (FYN (human)): 3.51% | residual activity (NTRK3 (human)): 67.9% | residual activity (NUAK2 (human)): 96.8% | residual activity (MST4 (human)): 95.2% | residual activity (MARK1 (human)): 94.1% | residual activity (IKBKE (human)): 97.4% | residual activity (SLK (human)): 96.5% | residual activity (DYRK3 (human)): 94.9% | residual activity (MATK (human)): 90% | residual activity (RPS6KA6 KD1 KD2 (human)): 96.6% | residual activity (PRKX (human)): 102% | residual activity (MET (human)): 110% | residual activity (EPHA8 (human)): 95.2% | residual activity (NEK1 (human)): 79.3% | residual activity (FGFR1 (human)): 77.4% | residual activity (NEK7 (human)): 94.6% | residual activity (STK24 (human)): 100% | residual activity (CAMK2G (human)): 95% | residual activity (RIPK2 (human)): 28.6% | residual activity (CAMK2A (human)): 113% | residual activity (ADRBK2 (human)): 92.2% | residual activity (CSNK1G2 (human)): 93.7% | residual activity (TGFBR2 (human)): 166% | residual activity (PIM1 (human)): 92.4% | residual activity (EPHA2 (human)): 100% | residual activity (TTK (human)): 104% | residual activity (PRKCB1 (human)): 92.8% | residual activity (HCK (human)): 2.18% | residual activity (PAK2 (human)): 106% | residual activity (INSR (human)): 103% | residual activity (CAMK4 (human)): 101%
